In patent US20020009799A1, “Isolation and purification of nucleic acids” (priority 1999, published 2002):

Experiments:
E. coli cells = test: Lysis of suspended bacterial cells by lysis buffers with 0.1 to 1% SDS; assay type: cell-based; settings: lysis buffer with 1% OT-100, 0.2M NaOH
Protocol: 0.25 grams of pelleted E. coli cells (the cells contained an 8.165 kB plasmid called VR1412) were suspended in the suspension buffer from a Concert Plasmid DNA Purification Kit (Life Technologies, Inc., Bethesda, Md.). In place of the lysis buffer provided in the Concert Plasmid DNA Purification Kit (i.e., 1% SDS in 200 mM NaOH), a series of ten different lysis buffers were evaluated. Each lysis buffer included 1% OT-100 (a hydrophobic surfactant), 0.2M NaOH and from 0.1 to 1% SDS. The lysis buffers were used to lyse the suspended bacterial cells, and the lysed suspension was then neutralized with the neutralization buffer provided in the Concert Plasmid DNA Purification Kit. The resulting plasmid DNA preparation was precipitated by the addition of isopropanol (IPA) followed by centrifugation.
The best result was obtained with 1% OT-100 and 0.4% SDS, that combined a relatively low endotoxin (LAL) level and a high plasmid concentration.

[1] = in water; cited from earlier work
[2] = bracketed value; cited from earlier work

CCCCCCCCCCCCOS(=O)(=O)[O-].[Na+] [SDS, Sodium dodecyl sulfate]
minimum concentration of SDS required to achieve most effective bacterial lysis (E. coli cells): 0.4%

CCCCCCCCCCCCCOC(=O)CC(C(=O)OCCCCCCCCCCCCC)S(=O)(=O)O.[Na] (stereo not drawn) [TR-70, sodium bistridecyl sulfosuccinate]
Solubility [1]: 0.15%

Triton ® X-100
Dynamic Surface Tension [6 bubbles/sec] [2]: — (42.2) dynes/cm
